According to PMC11579512, “Deoxybouvardin-glucoside induces apoptosis in non-small cell lung cancer cells by targeting EGFR/MET and AKT signaling pathway” (EXCLI Journal, 2024):

Tested on: HCC827 cells
Experiment: Annexin V/7-AAD apoptosis, HCC827
Assay type: cell-based, human
Set-up: Early apoptosis / Total apopt / Dead / Live: unit not given here
Settings: for apoptotic cells (annexin V+): 48 h, background 4.78 %; for Dead / Early apoptosis / Late apoptosis/Dead / Total apopt / Live: HCC827
Protocol: HaCaT cells were grown in DMEM, whereas HCC827 and HCC827GR cells were grown in RPMI 1640. All culture media were supplemented with FBS (10 %) and P/S (1 %), and the cells were grown at 37 °C in 5 % CO2.
Apoptosis was measured using a Muse™ Annexin V & Dead Cell Kit (MCH100105, Merck Millipore). The fluorescent signal was analyzed with a Muse™ Cell Analyzer.

SMILES: COc1ccc(C[C@H]2C(=O)N[C@@H](C)C(=O)N(C)[C@H]3Cc4ccc(cc4)Oc4cc(ccc4O[C@@H]4O[C@H](CO)[C@@H](O)[C@H](O)[C@H]4O)C[C@@H](C(=O)N[C@H](C)C(=O)N[C@@H](C)C(=O)N2C)N(C)C3=O)cc1 [DBG, deoxybouvardin glucoside]
- apoptotic cells (annexin V+) (DBG 6 nM): 15.30%
- apoptotic cells (annexin V+) (DBG 12 nM): 44.90%
- Dead (DBG 3 nM, mean of 3 samples, untreated 1.21): 1.72
- Early apoptosis (DBG 3 nM, mean of 3 samples, untreated 1.30): 3.33
- Late apoptosis/Dead (DBG 3 nM, mean of 3 samples, untreated 3.48): 6.27
- Total apopt (DBG 3 nM, mean of 3 samples, untreated 4.78): 9.60
- Live (DBG 3 nM, mean of 3 samples, untreated 94.01): 88.68
- Dead (DBG 3 nM, replicate 1): 1.90
- Early apoptosis (DBG 3 nM, replicate 1): 3.35
- Late apoptosis/Dead (DBG 3 nM, replicate 1): 5.90
- Live (DBG 3 nM, replicate 1): 88.85
- Total apopt (DBG 3 nM, replicate 1): 9.25
- Dead (DBG 3 nM, replicate 2): 1.75
- Early apoptosis (DBG 3 nM, replicate 2): 3.40
- Late apoptosis/Dead (DBG 3 nM, replicate 2): 5.90
- Live (DBG 3 nM, replicate 2): 88.95
- Total apopt (DBG 3 nM, replicate 2): 9.30
- Dead (DBG 3 nM, replicate 3): 1.50
- Early apoptosis (DBG 3 nM, replicate 3): 3.25
- Late apoptosis/Dead (DBG 3 nM, replicate 3): 7.00
- Live (DBG 3 nM, replicate 3): 88.25
- Total apopt (DBG 3 nM, replicate 3): 10.25
- Dead (DBG 6 nM, mean of 3 samples, untreated 1.21): 1.75
- Early apoptosis (DBG 6 nM, mean of 3 samples, untreated 1.30): 6.37
- Late apoptosis/Dead (DBG 6 nM, mean of 3 samples, untreated 3.48): 8.93
- Total apopt (DBG 6 nM, mean of 3 samples, untreated 4.78): 15.30
- Live (DBG 6 nM, mean of 3 samples, untreated 94.01): 82.95
- Dead (DBG 6 nM, replicate 1): 1.70
- Early apoptosis (DBG 6 nM, replicate 1): 6.40
- Late apoptosis/Dead (DBG 6 nM, replicate 1): 9.25
- Live (DBG 6 nM, replicate 1): 82.65
- Total apopt (DBG 6 nM, replicate 1): 15.65
- Dead (DBG 6 nM, replicate 2): 1.90
- Early apoptosis (DBG 6 nM, replicate 2): 6.75
- Late apoptosis/Dead (DBG 6 nM, replicate 2): 8.15
- Live (DBG 6 nM, replicate 2): 83.20
- Total apopt (DBG 6 nM, replicate 2): 14.90
- Dead (DBG 6 nM, replicate 3): 1.65
- Early apoptosis (DBG 6 nM, replicate 3): 5.95
- Late apoptosis/Dead (DBG 6 nM, replicate 3): 9.40
- Live (DBG 6 nM, replicate 3): 83.00
- Total apopt (DBG 6 nM, replicate 3): 15.35
- Dead (DBG 12 nM, mean of 3 samples, untreated 1.21): 4.72
- Early apoptosis (DBG 12 nM, mean of 3 samples, untreated 1.30): 19.42
- Late apoptosis/Dead (DBG 12 nM, mean of 3 samples, untreated 3.48): 25.48
- Total apopt (DBG 12 nM, mean of 3 samples, untreated 4.78): 44.90
- Live (DBG 12 nM, mean of 3 samples, untreated 94.01): 50.38
- Dead (DBG 12 nM, replicate 1): 4.65
- Early apoptosis (DBG 12 nM, replicate 1): 19.00
- Late apoptosis/Dead (DBG 12 nM, replicate 1): 25.05
- Live (DBG 12 nM, replicate 1): 51.30
- Total apopt (DBG 12 nM, replicate 1): 44.05
- Dead (DBG 12 nM, replicate 2): 4.15
- Early apoptosis (DBG 12 nM, replicate 2): 19.25
- Late apoptosis/Dead (DBG 12 nM, replicate 2): 25.30
- Live (DBG 12 nM, replicate 2): 51.30
- Total apopt (DBG 12 nM, replicate 2): 44.55
- Dead (DBG 12 nM, replicate 3): 5.35
- Early apoptosis (DBG 12 nM, replicate 3): 20.00
- Late apoptosis/Dead (DBG 12 nM, replicate 3): 26.10
- Live (DBG 12 nM, replicate 3): 48.55
- Total apopt (DBG 12 nM, replicate 3): 46.10
